Experimental data from PubChem BioAssay (NCI).
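Test compounds were applied to cells in 96-well plates for 48 hours at 5 doses. GI50 marks 50% less growth. The concentration for full growth arrest is given as TGI.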

Columns and labels:
Experiment in all cases: inhibition of tumour cell growth, NCI panel, 48 h
SF-539 CNS = system: SF-539 CNS
CAKI-1 renal = system: CAKI-1 renal
TK-10 renal = system: TK-10 renal
A498 renal = system: A498 renal
HCT-116 colon = system: HCT-116 colon
MALME-3M melanoma = system: MALME-3M melanoma
SR leukemia = system: SR leukemia
A549 NSCLC = system: A549 NSCLC
UO-31 renal = system: UO-31 renal
OVCAR-5 ovarian = system: OVCAR-5 ovarian
SF-295 CNS = system: SF-295 CNS
SW-620 colon = system: SW-620 colon
ACHN renal = system: ACHN renal
DU-145 prostate = system: DU-145 prostate
PC-3 prostate = system: PC-3 prostate
BT-549 breast = system: BT-549 breast
SK-OV-3 ovarian = system: SK-OV-3 ovarian
T-47D breast = system: T-47D breast
SK-MEL-2 melanoma = system: SK-MEL-2 melanoma
LOX IMVI melanoma = system: LOX IMVI melanoma
SNB-19 CNS = system: SNB-19 CNS
NCI-H23 lung = system: NCI-H23 lung
NCI/ADR-RES ovarian = system: NCI/ADR-RES ovarian
KM12 colon = system: KM12 colon
MDA-MB-231 breast = system: MDA-MB-231 breast
NCI-H460 lung = system: NCI-H460 lung
UACC-257 melanoma = system: UACC-257 melanoma
MDA-MB-435 = system: MDA-MB-435
K-562 leukemia = system: K-562 leukemia
COLO 205 colon = system: COLO 205 colon
HL-60(TB) leukemia = system: HL-60(TB) leukemia
SF-268 CNS = system: SF-268 CNS
SK-MEL-5 melanoma = system: SK-MEL-5 melanoma
SK-MEL-28 melanoma = system: SK-MEL-28 melanoma
M14 melanoma = system: M14 melanoma
HCC-2998 colon = system: HCC-2998 colon
HOP-92 NSCLC = system: HOP-92 NSCLC
OVCAR-4 ovarian = system: OVCAR-4 ovarian
MCF7 breast = system: MCF7 breast
U251 CNS = system: U251 CNS
HT29 colon = system: HT29 colon
NCI-H522 lung = system: NCI-H522 lung
SN12C renal = system: SN12C renal
HOP-62 NSCLC = system: HOP-62 NSCLC
EKVX NSCLC = system: EKVX NSCLC
IGROV1 ovarian = system: IGROV1 ovarian
RXF 393 renal = system: RXF 393 renal
786-0 renal = system: 786-0 renal
NCI-H226 lung = system: NCI-H226 lung
HS 578T breast = system: HS 578T breast
MOLT-4 leukemia = system: MOLT-4 leukemia
HCT-15 colon = system: HCT-15 colon
OVCAR-8 ovarian = system: OVCAR-8 ovarian
UACC-62 melanoma = system: UACC-62 melanoma
OVCAR-3 ovarian = system: OVCAR-3 ovarian

## OCC#Cc1ccccc1C#CCCCCCCC#Cc1ccccc1C#CCO
SF-539 CNS
  GI50: 18.7 µM
  TGI: 32.8 µM
CAKI-1 renal
  GI50: 17.4 µM
  TGI: 32.8 µM
TK-10 renal
  GI50: 19.2 µM
  TGI: 34.2 µM
A498 renal
  GI50: 21.5 µM
  TGI: 36.1 µM
HCT-116 colon
  GI50: 10.7 µM
  TGI: 24.5 µM
MALME-3M melanoma
  GI50: 15.7 µM
  TGI: 30.1 µM
SR leukemia
  GI50: 16 µM
  TGI: 34.6 µM
A549 NSCLC
  GI50: 17.2 µM
  TGI: 33.9 µM
UO-31 renal
  GI50: 24 µM
  TGI: > 53.1 µM
OVCAR-5 ovarian
  GI50: 17 µM
  TGI: 30.7 µM
SF-295 CNS
  GI50: 14.6 µM
  TGI: 28.6 µM
SW-620 colon
  GI50: 22.2 µM
  TGI: 41.6 µM
ACHN renal
  GI50: 17.4 µM
  TGI: 31.5 µM
DU-145 prostate
  GI50: 19.1 µM
  TGI: 35.1 µM
PC-3 prostate
  GI50: 15.9 µM
  TGI: 33.3 µM
BT-549 breast
  GI50: 20.2 µM
  TGI: 37.9 µM
SK-OV-3 ovarian
  GI50: 15.8 µM
  TGI: 30.5 µM
T-47D breast
  GI50: 18.1 µM
  TGI: 33.7 µM
SK-MEL-2 melanoma
  GI50: 34.6 µM
  TGI: > 100 µM
LOX IMVI melanoma
  GI50: 18 µM
  TGI: 34.7 µM
SNB-19 CNS
  GI50: 18.6 µM
  TGI: 34.2 µM
NCI-H23 lung
  GI50: 17.1 µM
  TGI: 30.9 µM
NCI/ADR-RES ovarian
  GI50: 17.7 µM
  TGI: 33 µM
KM12 colon
  GI50: 18.1 µM
  TGI: 37.1 µM
MDA-MB-231 breast
  GI50: 9.97 µM
  TGI: 24.8 µM
NCI-H460 lung
  GI50: 20.5 µM
  TGI: 47.4 µM
UACC-257 melanoma
  GI50: 18.9 µM
  TGI: 34.5 µM
MDA-MB-435
  GI50: 18.1 µM
  TGI: 34.1 µM
K-562 leukemia
  GI50: 15.8 µM
  TGI: 40.8 µM
COLO 205 colon
  GI50: 18.8 µM
  TGI: 36.4 µM
HL-60(TB) leukemia
  GI50: 25.2 µM
  TGI: 48.5 µM
SF-268 CNS
  GI50: 16.2 µM
  TGI: 32.5 µM
SK-MEL-5 melanoma
  GI50: 17 µM
  TGI: 31.3 µM
SK-MEL-28 melanoma
  GI50: 23.6 µM
  TGI: 62.2 µM
M14 melanoma
  GI50: 5.64 µM
  TGI: 22.9 µM
HCC-2998 colon
  GI50: 17.7 µM
  TGI: 31.5 µM
HOP-92 NSCLC
  GI50: 13.1 µM
  TGI: 26.5 µM
OVCAR-4 ovarian
  GI50: 18.4 µM
  TGI: 45.6 µM
MCF7 breast
  GI50: 18.4 µM
  TGI: 40.7 µM
U251 CNS
  GI50: 18.2 µM
  TGI: 34.1 µM
HT29 colon
  GI50: 22.7 µM
  TGI: > 75.9 µM
NCI-H522 lung
  GI50: 0.882 µM
SN12C renal
  GI50: 15.8 µM
  TGI: 31.1 µM
HOP-62 NSCLC
  GI50: 9.78 µM
  TGI: 25.8 µM
EKVX NSCLC
  GI50: 17.5 µM
  TGI: 32.7 µM
IGROV1 ovarian
  GI50: 7.97 µM
  TGI: 44.3 µM
RXF 393 renal
  GI50: 16.8 µM
  TGI: 33.6 µM
786-0 renal
  GI50: 17.3 µM
  TGI: 31.1 µM
NCI-H226 lung
  GI50: 16.4 µM
  TGI: 33.1 µM
HS 578T breast
  GI50: 18.2 µM
  TGI: 39.1 µM
MOLT-4 leukemia
  GI50: 11.1 µM
  TGI: 30.8 µM
HCT-15 colon
  GI50: 23.2 µM
  TGI: 59.6 µM
OVCAR-8 ovarian
  GI50: 17 µM
  TGI: 35.8 µM
UACC-62 melanoma
  GI50: 16.8 µM
  TGI: 31.4 µM
OVCAR-3 ovarian
  GI50: 18.3 µM
  TGI: 33.4 µM
